{
  "source": "patent US7744927B2",
  "about": "“Methods of promoting hematopoietic and mesenchymal cell proliferation and differentiation” (University of Southern California, priority 1997, dated 2010)",
  "key": {"[1]": {"tested_on": "rabbit corneal eye", "settings": "in vivo; cited from earlier work"}, "[2]": {"tested_on": "rat MSC", "assay": "Rat mesenchymal stem cell proliferation in bone marrow culture", "type": "cell-based, Sprague Dawley rats", "settings": "1 to 100 μg/ml, in presence of serum", "description": "These studies were conducted to determine the effect that AII would have on the proliferation of MSC. Bone marrow cells were harvested from the femur and tibia of female Sprague Dawley rats by flushing the bones with Dulbecco's Minimal Essential Medium-High Glucose (“DMEM-HG”) with a syringe and an 18 gauge needle. These cells were cultured in 24 well plates at 5×10^3 cells/mm^2 in DMEM-HG containing selected lots of fetal calf serum (FCS) and antibiotics (complete medium) at 37° C. incubator containing 5% CO2 in air. Twenty-four hours after the initiation of the cultures the medium and nonadherent cells were aspirated and fresh medium was added. To each of these several wells, complete medium with (1 to 100 μg/ml) or without AII was added. The migration of cells from the clones and their proliferation was followed by microscopic examination. Every 4 days the old medium was removed and fresh medium was added to the cultures. These studies were conducted to determine the effect that inclusion of AII analogues and fragments in the cell culture of MSC would have on the proliferation of these cells. Bone marrow cells were harvested from the femur and tibia of female Sprague Dawley rats by flushing the bones with Dulbecco's Minimal Essential Medium-High Glucose (“DMEM-HG”) with a syringe and an 18 gauge needle. […]"}, "[3]": {"tested_on": "cells that express alkaline phosphatase (rat bone marrow MSC)", "assay": "Alkaline phosphatase expression by MSC in osteogenic medium", "type": "cell-based, Sprague Dawley rats", "settings": "osteogenic medium 4 days, absorbance at 405 nm", "excerpt": "Mesenchymal stem cells isolated from bone marrow and grown under appropriate conditions can express characteristics of multiple cell types, including cells involved in the generation of bone, cartilage, muscle and tendons. Osteogenic cells (cells that can form bone tissue) express the enzyme alkaline phosphatase when cultured in medium that drives them toward their osteogenic differentiation.\nBone marrow from female Sprague Dawley rats were harvested by flushing the femur with medium. The cells were placed in culture dishes 9 […], allowed to adhere overnight, and then placed in DMEM-LG medium containing antibiotics and 10% fetal calf serum together with varying concentrations of AII. At various times after culture initiation, the cells were washed with Tyrode's buffer and placed in osteogenic medium (DMEM-LG containing 10% fetal calf serum, 100 nM dexamethasone and 0.05 mM ascorbic acid) for 4 days prior to assessment of the level of alkaline phosphatase activity per well. Briefly, the wells were washed with Tyrode's buffer and 1 ml alkaline phosphatase substrate solution (50 mM glycine, pH 10.5, containing 1 mM magnesium chloride and 2.5 mM p-nitrophenyl phosphate) to each well. […] The absorbance of the resultant mixture at 405 nm was then determined via spectroscopy. The level of alkaline phosphatase activity is expressed as the level of absorbance per culture dish."}, "[4]": {"tested_on": "cultured cells that are involved in wound repair", "settings": "cited from earlier work"}, "[5]": {"tested_on": "Murine Peritoneal Macrophages", "assay": "Phagocytosis of opsonized yeast by murine peritoneal macrophages", "type": "cell-based, C57B1/6 mice", "settings": "for # Macrophages with Yeast, Yeast # 0 / # Macrophages with Yeast, Yeast # 1-3 / # Macrophages with Yeast, Yeast # 4-6 / # Macrophages with Yeast, Yeast # 7-9 / # Yeast/MO / % Ingesting: 4 hours", "description": "Resident peritoneal macrophages have very little phagocytic activity. Exposure of macrophages to inflammatory or activating agents will increase this macrophage function. Resident peritoneal macrophages were harvested from C57B1/6 mice or Sprague Dawley rats and resuspended at a concentration of 1×10^6 cells/ml in phosphate buffered saline (PBS). Five separate 0.5 ml cell aliquots were placed on a glass coverslip in a 35 mm petri dish. Prior to incubation, either 0.5 ml of PBS, AII, or AII analogues or fragments at between 1-1000 ug/ml final concentration was added to the individual cover slips. The dishes containing the cover slips were then incubated at 37° C. for 4 hours, after which the cover slips were washed 3 to 6 times with PBS. Opsonized yeast particles (Sigma Chemical Co.) (yeast opsonized with adult serum from the same species as that under study) were added to the cover slips and incubated for 2 hours, after which the cover slips were again washed with PBS and inverted onto a glass slide. The number of macrophages that ingested yeast and the number of yeast per macrophage ingested was then determined microscopically. At least 100 macrophages per coverslip were counted. The data from this study are summarized in Tables 3 and 4 and FIGS. 1 and 2."}},
  "data": [
    {"substance": "Asp-Arg-Val-Tyr-Ile-His-Pro-Phe [AII, known pressor agent, commercially available]", "values": [
      {"measurement": "angiogenic activity", "setting": "[1]", "value": "angiogenic"},
      {"measurement": "number of sites from which the MSC were migrating (CFU)", "setting": "[2]", "value": "significantly increased"},
      {"measurement": "size (number of cells) of the colonies formed", "setting": "[2]", "value": "significantly increased"},
      {"measurement": "proliferation of cells that express alkaline phosphatase", "setting": "[3]", "value": "can accelerate the proliferation of cells that express alkaline phosphatase"},
      {"measurement": "mitogenesis and chemotaxis", "setting": "[4]", "value": "increases mitogenesis and chemotaxis"},
      {"measurement": "phagocytic capability of peritoneal macrophages", "setting": "[5]; 10 μg/ml or greater", "value": "tremendously increased"},
      {"measurement": "# Macrophages with Yeast, Yeast # 0", "setting": "[5]; AII 1 μg/ml", "value": 100},
      {"measurement": "# Macrophages with Yeast, Yeast # 1-3", "setting": "[5]; AII 1 μg/ml", "value": 1},
      {"measurement": "# Macrophages with Yeast, Yeast # 4-6", "setting": "[5]; AII 1 μg/ml", "value": 0},
      {"measurement": "# Macrophages with Yeast, Yeast # 7-9", "setting": "[5]; AII 1 μg/ml", "value": 0},
      {"measurement": "# Yeast/MO", "setting": "[5]; AII 1 μg/ml", "value": 0.01},
      {"measurement": "% Ingesting", "setting": "[5]; AII 1 μg/ml", "value": 1, "unit": "%"},
      {"measurement": "# Macrophages with Yeast, Yeast # 0", "setting": "[5]; AII 10 μg/ml", "value": 100},
      {"measurement": "# Macrophages with Yeast, Yeast # 1-3", "setting": "[5]; AII 10 μg/ml", "value": 3},
      {"measurement": "# Macrophages with Yeast, Yeast # 4-6", "setting": "[5]; AII 10 μg/ml", "value": 4},
      {"measurement": "# Macrophages with Yeast, Yeast # 7-9", "setting": "[5]; AII 10 μg/ml", "value": 0},
      {"measurement": "# Yeast/MO", "setting": "[5]; AII 10 μg/ml", "value": 0.24},
      {"measurement": "% Ingesting", "setting": "[5]; AII 10 μg/ml", "value": 6.5, "unit": "%"},
      {"measurement": "# Macrophages with Yeast, Yeast # 0", "setting": "[5]; AII 100 μg/ml", "value": 100},
      {"measurement": "# Macrophages with Yeast, Yeast # 1-3", "setting": "[5]; AII 100 μg/ml", "value": 10},
      {"measurement": "# Macrophages with Yeast, Yeast # 4-6", "setting": "[5]; AII 100 μg/ml", "value": 10},
      {"measurement": "# Macrophages with Yeast, Yeast # 7-9", "setting": "[5]; AII 100 μg/ml", "value": 0},
      {"measurement": "# Yeast/MO", "setting": "[5]; AII 100 μg/ml", "value": 0.58},
      {"measurement": "# Yeast/MO", "setting": "[5]; AII 1000 μg/ml (highest concentration)", "value": 1},
      {"measurement": "# Macrophages with Yeast, Yeast # 0", "setting": "[5]; AII 1000 μg/ml", "value": 100},
      {"measurement": "# Macrophages with Yeast, Yeast # 1-3", "setting": "[5]; AII 1000 μg/ml", "value": 20},
      {"measurement": "# Macrophages with Yeast, Yeast # 4-6", "setting": "[5]; AII 1000 μg/ml", "value": 20},
      {"measurement": "# Macrophages with Yeast, Yeast # 7-9", "setting": "[5]; AII 1000 μg/ml", "value": 0}
    ]}
  ]
}
